Test results as given in US20060211651A1, “Persulfated oligosaccharide acting on selectins and chemokine” (Taisho Pharmaceutical Co., Ltd., priority 2002, published 2006).
Each block holds one molecule with its values, some of them ahead of it.

How the values were obtained:
CD44-Ig [1] = assay: ELISA, biotinylated versican binding to CD44-Ig in presence of glycosaminoglycan; design: species or system human; conditions: 100 μg/ml glycosaminoglycan; FIG. 5
Experimental: A well of a 96 well flat bottom microtiter plate was coated with BSA (5 μg/ml), anti-versican monoclonal antibody 2B1 (5 μg/ml), CD44-Ig (7 μg/ml), L-selectin-Ig (3 μg/ml), P-selectin-Ig (3 μg/ml) or chemokine (1 μg/ml), and then blocked with a phosphate buffered physiological saline containing 3% by weight of BSA. As the above chemokine, secondary lymphoid tissue chemokine, γ-interferon inducible protein-10, platelet factor 4, stromal cell-derived factor-1β [manufactured by Pepro Tech] and stromal cell-derived factor-1α [manufactured by Pepro Tech] were used.
Thereafter, the plate was washed with the buffer A, and enzyme-linked immunosorbent assay was performed in the same manner as that of the previous report [Kawashima, H. et al., J. Biol. Chem., 275, 35448-35456 (2000)]. Binding was determined by measuring absorbance at 620 nm using alkaline phosphatase-conjugated streptavidin and Blue Phos™ substrate. In FIG. 5, expression of an abscissa axis is the same as that of FIG. 4.

[2] = tested on: secondary lymphoid tissue chemokine; assay: BIAcore surface plasmon resonance, immobilized glycosaminoglycan vs SLC; type: binding
Experimental: (§1) Affinity kinetics of the interaction between various CS/DS chains and each of L-selectin, P-selectin, CD44 and chemokine were examined by surface plasmon resonance using BIAcore™ biosensor [manufactured by BIAcore AB].
(§2) All experiments were performed at 25° C. At stages of washing and dissociation, buffer C (20 mM HEPES-NaOH, 0.15M NaCl, 1 mM CaCl2, 1 mM MgCl2, pH6.8) was used as a running buffer.
(§3) First, about 1.8 to 2.0 kiloresonance unit (1 kiloresonance unit=1 ng/mm^2) of streptavidin were covalently immobilized onto B1 sensor chip via a primary amine group using an amine coupling kit [manufactured by Amercham-Bioscience] according to the instruction provided by the manufacturer. The remaining activated groups were blocked with 150 μl of 1M ethanolamine-HCl (pH8.5). Then, each glycosaminoglycan which had been biotinylated at a reducing end was injected to a sensor tip surface by using EZ-link™ biotin-LC-hydrazide [manufactured by Pierce] so as to obtain about 150 resonance unit of an immobilization level, according to the method of Sadir et al. [J. Biol. Chem., 276, 8288-8296 (2001); all teachings of which are hereby incorporated by reference].
(§4) Binding assay was performed by injecting continuously each of various concentrations of secondary lymphoid tissue chemokine, γ-interferon inducible protein-10, stromal cell-derived factor-1β, monomeric L-selectin [manufactured by Genzyme-Techne], monomeric P-selectin [manufactured by Genzyme-Techne] and monomeric CD44, to a glycosaminoglycan-coupled sensor tip at a flow rate of 30 μl/min for 0 to 90 seconds, and then injecting a running buffer thereto. A response in resonance unit was recorded as a function of a time.
(§5) A sensor tip surface was regenerated with 300 μl of 1 M NaCl when chemokine or CD44 was used, or regenerated with 300 μl of 1 M NaCl, and additional 100 μl of 50 mM EDTA (pH8.0), when selectin was used. As a result of regeneration of a sensor tip surface, a remarkable change in a baseline was not observed.
(§6) An affinity kinetic parameter was determined by BIAevaluation 3.0 software [manufactured by Pharmacia Biosensor] using a single site binding model. […] In FIG. 6 and Table 3, SLC denotes secondary lymphoid tissue chemokin, IP-10 denotes γ-interferon inducible protein-10, SDF-1β denotes stromal cell-derived factor-1β, CS E denotes chondroitin sulfate E, and CS A denotes chondroitin sulfate A. In addition, in Table 3, Kd value for the interaction between monomeric CD44 and chondroitin sulfate E is a value calculated from a binding amount at equilibrium, and Kd value of the interaction between CD44 and hyaluronic acid is a value calculated using CD44-Ig.

[3] = target: T1, stromal cell-derived factor-1β (Homo sapiens, UniProt P48061); assay: BIAcore surface plasmon resonance, immobilized glycosaminoglycan vs SDF-1β; type: binding
T1 construct: purchased Pepro Tech
T1 sequence (P48061 22-93): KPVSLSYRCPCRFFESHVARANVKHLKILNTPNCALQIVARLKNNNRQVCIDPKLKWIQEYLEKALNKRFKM
Experimental: as §1, §2, §3, §4, §5, §6

monomeric P-selectin [4] = target: T2, monomeric P-selectin (Homo sapiens, UniProt P16109); assay: BIAcore surface plasmon resonance, immobilized glycosaminoglycan vs monomeric P-selectin; type: binding; conditions: monomeric P-selectin
T2 construct: purchased Genzyme-Techne
T2 sequence (P16109 42-771 limits assumed): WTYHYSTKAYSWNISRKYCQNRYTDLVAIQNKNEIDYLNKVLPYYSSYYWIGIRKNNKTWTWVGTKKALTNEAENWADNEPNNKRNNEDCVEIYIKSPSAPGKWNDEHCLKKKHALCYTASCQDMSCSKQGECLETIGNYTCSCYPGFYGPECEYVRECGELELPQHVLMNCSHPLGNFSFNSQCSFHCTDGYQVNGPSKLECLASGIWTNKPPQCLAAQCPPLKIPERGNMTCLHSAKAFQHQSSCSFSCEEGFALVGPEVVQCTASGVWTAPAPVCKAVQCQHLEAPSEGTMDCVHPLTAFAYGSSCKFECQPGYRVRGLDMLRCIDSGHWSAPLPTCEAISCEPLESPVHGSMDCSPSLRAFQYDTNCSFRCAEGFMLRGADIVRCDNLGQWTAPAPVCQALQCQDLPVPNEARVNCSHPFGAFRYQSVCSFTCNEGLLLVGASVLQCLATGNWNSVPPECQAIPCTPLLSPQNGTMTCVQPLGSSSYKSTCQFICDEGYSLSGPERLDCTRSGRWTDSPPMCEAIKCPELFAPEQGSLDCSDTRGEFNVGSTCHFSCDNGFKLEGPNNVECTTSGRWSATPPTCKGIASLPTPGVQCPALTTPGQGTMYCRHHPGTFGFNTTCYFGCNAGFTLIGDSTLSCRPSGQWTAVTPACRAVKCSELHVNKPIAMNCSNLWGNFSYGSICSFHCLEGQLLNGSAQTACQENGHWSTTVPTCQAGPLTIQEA
Experimental: as §1, §2, §3, §4, §5, §6

L-selectin-Ig = target: T3, L-selectin-Ig (Homo sapiens, UniProt P14151); assay: Binding inhibition assay (ELISA), biotinylated versican to L-selectin-Ig, various concentrations; conditions: dose-dependent, FIG. 2 panel A
T3 construct: purchased R & D Systems Inc
T3 sequence (P14151 with tags, fused parts or gaps limits assumed): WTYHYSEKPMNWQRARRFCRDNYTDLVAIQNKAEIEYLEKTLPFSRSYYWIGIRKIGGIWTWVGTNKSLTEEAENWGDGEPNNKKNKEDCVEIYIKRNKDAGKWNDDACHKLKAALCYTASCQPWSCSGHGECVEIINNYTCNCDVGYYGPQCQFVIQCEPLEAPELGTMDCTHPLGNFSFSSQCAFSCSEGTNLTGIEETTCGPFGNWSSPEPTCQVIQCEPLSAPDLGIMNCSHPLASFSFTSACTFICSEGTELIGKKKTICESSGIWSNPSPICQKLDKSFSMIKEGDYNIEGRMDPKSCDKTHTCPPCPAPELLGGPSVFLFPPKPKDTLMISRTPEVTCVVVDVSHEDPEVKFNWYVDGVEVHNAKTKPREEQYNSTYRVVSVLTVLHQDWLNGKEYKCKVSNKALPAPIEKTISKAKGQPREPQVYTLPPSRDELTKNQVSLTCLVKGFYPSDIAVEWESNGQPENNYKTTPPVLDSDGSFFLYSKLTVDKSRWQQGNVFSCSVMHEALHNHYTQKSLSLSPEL
Experimental: (§7) Inhibition assay of binding between versican and each of L-selectin, P-selectin and CD44 was performed as follows. First, each well on a 96 well flat bottom microtiter plate (Coster EIA/RIA plate No. 3690) was coated with L-selectin-Ig (3 μg/ml), P-selectin-Ig (4 μg/ml) or CD44-Ig (0.25 μg/ml) by a conventional procedure. […] The plate was incubated at room temperature for 2 hours. Thereafter, the plate was washed with the buffer A, and enzyme-linked immunosorbent assay was performed in the same manner as described in Kawashima, H. et al. [J. Biol. Chem., 275, 35448-35456 (2000)]. Binding was determined by measuring absorbance at 620 nm using alkaline phosphatase-conjugated streptavidin and Blue Phos™ substrate.

P-selectin-Ig = assay: Binding inhibition assay (ELISA), biotinylated versican to P-selectin-Ig, various concentrations; conditions: dose-dependent, FIG. 2 panel B
Experimental: as §7

monomeric L-selectin = target: T4, monomeric L-selectin (Homo sapiens, UniProt P14151); assay: BIAcore surface plasmon resonance, immobilized glycosaminoglycan vs monomeric L-selectin; type: binding; conditions: monomeric L-selectin
T4 construct: purchased Genzyme-Techne
T4 sequence (P14151 39-332 limits assumed): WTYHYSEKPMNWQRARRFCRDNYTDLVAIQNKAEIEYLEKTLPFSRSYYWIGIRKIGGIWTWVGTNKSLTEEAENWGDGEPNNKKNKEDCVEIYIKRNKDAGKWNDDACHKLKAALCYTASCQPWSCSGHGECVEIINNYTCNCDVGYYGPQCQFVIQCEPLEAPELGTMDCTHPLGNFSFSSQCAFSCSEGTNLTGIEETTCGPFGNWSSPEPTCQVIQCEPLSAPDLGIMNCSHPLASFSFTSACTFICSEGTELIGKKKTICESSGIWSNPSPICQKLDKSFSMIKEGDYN
Experimental: as §1, §2, §3, §4, §5, §6

monomeric CD44 = target: T5, monomeric CD44 (Homo sapiens, UniProt P16070); assay: BIAcore surface plasmon resonance, immobilized glycosaminoglycan vs monomeric CD44; type: binding; conditions: CD44 monomeric; GAG immobilized; 25° C.
T5 construct: codons of amino acids positions 172 to 178 of human CD44; Myc-His (from vector pcDNA 3.1/Myc-His(+) B) (C); made in house; host or cells: 293T cells, secreted into conditioned medium and purified on anti-CD44 BRIC 235 Sepharose
T5 sequence (P16070 21-178 limits assumed): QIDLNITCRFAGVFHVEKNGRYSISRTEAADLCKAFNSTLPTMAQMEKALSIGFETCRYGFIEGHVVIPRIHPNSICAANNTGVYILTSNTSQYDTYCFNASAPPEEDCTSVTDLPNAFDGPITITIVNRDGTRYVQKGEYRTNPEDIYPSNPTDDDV
Experimental: Human-derived CD44 cDNA was prepared by PCR using a sense primer (SEQ ID NO: 1):
Thereafter, the conditioned medium was subjected to immunoaffinity chromatography with anti-CD44 monoclonal antibody BRIC 235-coupled CNBr-activated Sepharose 4B, to obtain monomeric CD44. The resulting soluble CD44 was subjected to SDS-PAGE and silver staining. As a result, the purity of the resulting soluble CD44 was more than 95%.
as §1, §2, §3, §4, §5, §6

[5] = target: γ-interferon inducible protein-10 (Homo sapiens, UniProt P02778); assay: BIAcore surface plasmon resonance, immobilized glycosaminoglycan vs IP-10; type: binding
γ-interferon inducible protein-10, sequence (P02778 22-98): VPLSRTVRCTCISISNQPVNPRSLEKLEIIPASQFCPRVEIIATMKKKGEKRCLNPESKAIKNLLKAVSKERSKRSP
Experimental: as §1, §2, §3, §4, §5, §6

CD44-Ig [6] = assay: BIAcore surface plasmon resonance, hyaluronic acid vs CD44-Ig; design: species or system human; conditions: bivalent analyte binding model
Experimental: Then, using the resulting CD44, human CD44-immunoglobulin (Ig) was prepared according to the method described in Toyama-Sorimachi, N. [J. Biol. Chem., 270, 7437-7444, (1995); all teachings of which are hereby incorporated by reference].
as §1, §2
First, about 1.8 to 2.0 kiloresonance unit (1 kiloresonance unit=1 ng/mm^2) of streptavidin were covalently immobilized onto B1 sensor chip via a primary amine group using an amine coupling kit [manufactured by Amercham-Bioscience] according to the instruction provided by the manufacturer. The remaining activated groups were blocked with 150 μl of 1M ethanolamine-HCl (pH8.5). […]
as §4, with “time. […]” for “time.”
In FIG. 6 and Table 3, SLC denotes secondary lymphoid tissue chemokin, IP-10 denotes γ-interferon inducible protein-10, SDF-1β denotes stromal cell-derived factor-1β, CS E denotes chondroitin sulfate E, and CS A denotes chondroitin sulfate A. In addition, in Table 3, Kd value for the interaction between monomeric CD44 and chondroitin sulfate E is a value calculated from a binding amount at equilibrium, and Kd value of the interaction between CD44 and hyaluronic acid is a value calculated using CD44-Ig.

monomeric P-selectin [7] = target: T2, monomeric P-selectin; conditions: cited from earlier work

CD44-Ig, sequence (P16070 21-178 limits assumed): as the sequence (P16070 21-178 limits assumed) above

inhibition of binding between biotinylated versican and CD44-Ig (CD44-Ig [1]): inhibited
interaction with immobilized glycosaminoglycan (sensorgram) [3]: did not interact
interaction with immobilized glycosaminoglycan (sensorgram) (monomeric P-selectin [4]): did not interact
inhibition of binding between biotinylated versican and L-selectin-Ig (L-selectin-Ig): not inhibited
inhibition of binding between biotinylated versican and P-selectin-Ig (P-selectin-Ig): not inhibited
interaction with immobilized glycosaminoglycan (sensorgram) (monomeric L-selectin): did not interact
Kd (monomeric CD44): 129 µM
koff (monomeric CD44): 0.0649 s⁻¹
kon (monomeric CD44): 503 M⁻¹ s⁻¹
interaction with immobilized glycosaminoglycan (sensorgram) [5]: did not interact
Molecule: chondroitin
interaction with immobilized glycosaminoglycan (sensorgram) [2]: did not interact

Kd (CD44-Ig [6]; determined using CD44-Ig): 2080 nM
Molecule: hyaluronic acid [HA]
koff (CD44-Ig [6]; CD44-Ig): 0.0543 s⁻¹
kon (CD44-Ig [6]; CD44-Ig): 26100 M⁻¹ s⁻¹

B1: P-selectin glycoprotein ligand-1: known ligand of P-selectin (protein, UniProt Q14242 42-412, looked up)
P-selectin glycoprotein …: QATEYEYLDYDFLPETEPPEMLRNSTDTTPLTGPGTPESTTVEPAARRSTGLDAGGAVTELTTELANMGNLSTDSAAMEIQTTQPAATEAQTTQPVPTEAQTTPLAATEAQTTRLTATEAQTTPLAATEAQTTPPAATEAQTTQPTGLEAQTTAPAAMEAQTTAPAAMEAQTTPPAAMEAQTTQTTAMEAQTTAPEATEAQTTQPTATEAQTTPLAAMEALSTEPSATEALSMEPTTKRGLFIPFSVSSVTHKGIPMAASNLSVNYPVGAPDHISVKQCLLAILILALVATIFFVCTVVLAVRLSRKGHMYPVRNYSPTEMVCISSLLPDGGEGPSATANGGLSKAKSPGLTPEPREDREGDDLTLHSFLP
Kd (monomeric P-selectin [7]): ~300 nM
association rate (monomeric P-selectin [7]): 4.4e+06 M⁻¹ s⁻¹
dissociation rate (monomeric P-selectin [7]): 1.4 s⁻¹
